Data on two compounds can be found in ChEMBL document CHEMBL3880382, “TRH-like peptide derivatives as inhibitors of the TRH-degrading ectoenzyme” (2010).

The target of experiment [1] is T1, Thyrotropin releasing hormone degrading enzyme (Sus scrofa) (UniProt A0A287AP33). Put plainly: Reversible inhibition of pig brain TRH-DE using Glp-His-ProAMC as substrate at 1 uM preincubated for 75 mins by DPP-4-based continuous fluorometric method.
Experiment [2] has as its target Thyrotropin releasing hormone degrading enzyme (Sus scrofa, UniProt A0A287AP33). Put plainly: Inhibition of pig brain TRH-DE using Glp-His-ProAMC as substrate by DPP-4-based continuous fluorometric method.
Experiment [3] has as its system Rattus norvegicus. Put plainly: In vivo inhibition of TRH-DE in cannulated Wistar rat assessed as increase in TRH-mediated grooming at 10 mg/kg, ip measured every 5 mins for 30 secs during 40 mins observation period. The format is functional, organism-based.
Experiment [4] has as its target T1, Thyrotropin releasing hormone degrading enzyme (Sus scrofa). Put plainly: Inhibition of pig brain TRH-DE at 1 uM using Glp-His-ProAMC as substrate by DPP-4-based continuous fluorometric method.
In experiment [5] the test system is Rattus norvegicus. The experiment in a line: In vivo inhibition of TRH-DE in cannulated Wistar rat assessed as increase in TRH-mediated wet dog shakes at 10 mg/kg, ip measured for last 25 mins of the 40 mins observation period. The format is functional, organism-based.
Experiment [6] has as its system Rattus norvegicus. The experiment in a line: In vivo inhibition of TRH-DE in cannulated Wistar rat assessed as increase in TRH-mediated sniffing at 10 mg/kg, ip measured every 5 mins for 30 secs during 40 mins observation period. Format: functional, organism-based.
The subject of experiment [7] is Rattus norvegicus. The experiment in a line: In vivo inhibition of TRH-DE in cannulated Wistar rat assessed as increase in TRH-mediated wet dog shakes at 5 ug in 1 ul, icv followed by TRH addition measured after 30 mins relative to control. The format is functional.
In experiment [8] the test system is Rattus norvegicus. Put plainly: In vivo inhibition of TRH-DE in cannulated Wistar rat assessed as increase in TRH-mediated chewing at 10 mg/kg, ip measured every 5 mins for 30 secs during 40 mins observation period. Format: functional, organism-based.
The target in experiment [9] is T2, Thyrotropin-releasing hormone receptor (Rattus norvegicus, UniProt Q01717).
T2 sequence (Q01717 whole entry): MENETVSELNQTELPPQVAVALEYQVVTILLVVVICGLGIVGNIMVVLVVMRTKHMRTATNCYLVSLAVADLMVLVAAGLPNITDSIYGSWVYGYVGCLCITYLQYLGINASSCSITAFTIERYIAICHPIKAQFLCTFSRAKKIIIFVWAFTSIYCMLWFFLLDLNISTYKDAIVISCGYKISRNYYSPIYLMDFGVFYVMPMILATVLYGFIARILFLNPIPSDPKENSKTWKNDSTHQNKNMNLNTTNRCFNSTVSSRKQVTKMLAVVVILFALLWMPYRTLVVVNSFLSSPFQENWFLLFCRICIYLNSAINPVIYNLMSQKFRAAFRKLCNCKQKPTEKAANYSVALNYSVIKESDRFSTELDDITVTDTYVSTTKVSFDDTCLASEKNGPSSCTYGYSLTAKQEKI
Put plainly: Displacement of [3H]-3MeHis-TRH from TRH receptor in Sprague-Dawley rat cortical membranes. For orientation: Displacement assays read how much labelled ligand stays bound in the presence of the test substance.

Experiment [10] concerns Rattus norvegicus. Put plainly: Behavioral effect in cannulated Wistar rat assessed as number of wet dog shakes at 10 mg/kg, ip measured every 5 mins for 30 secs during 40 mins observation period. The format is functional.
For experiment [11], the target named is T3, Thyrotropin-releasing hormone-degrading ectoenzyme (Homo sapiens, UniProt Q9UKU6).
T3 sequence (Q9UKU6 whole entry): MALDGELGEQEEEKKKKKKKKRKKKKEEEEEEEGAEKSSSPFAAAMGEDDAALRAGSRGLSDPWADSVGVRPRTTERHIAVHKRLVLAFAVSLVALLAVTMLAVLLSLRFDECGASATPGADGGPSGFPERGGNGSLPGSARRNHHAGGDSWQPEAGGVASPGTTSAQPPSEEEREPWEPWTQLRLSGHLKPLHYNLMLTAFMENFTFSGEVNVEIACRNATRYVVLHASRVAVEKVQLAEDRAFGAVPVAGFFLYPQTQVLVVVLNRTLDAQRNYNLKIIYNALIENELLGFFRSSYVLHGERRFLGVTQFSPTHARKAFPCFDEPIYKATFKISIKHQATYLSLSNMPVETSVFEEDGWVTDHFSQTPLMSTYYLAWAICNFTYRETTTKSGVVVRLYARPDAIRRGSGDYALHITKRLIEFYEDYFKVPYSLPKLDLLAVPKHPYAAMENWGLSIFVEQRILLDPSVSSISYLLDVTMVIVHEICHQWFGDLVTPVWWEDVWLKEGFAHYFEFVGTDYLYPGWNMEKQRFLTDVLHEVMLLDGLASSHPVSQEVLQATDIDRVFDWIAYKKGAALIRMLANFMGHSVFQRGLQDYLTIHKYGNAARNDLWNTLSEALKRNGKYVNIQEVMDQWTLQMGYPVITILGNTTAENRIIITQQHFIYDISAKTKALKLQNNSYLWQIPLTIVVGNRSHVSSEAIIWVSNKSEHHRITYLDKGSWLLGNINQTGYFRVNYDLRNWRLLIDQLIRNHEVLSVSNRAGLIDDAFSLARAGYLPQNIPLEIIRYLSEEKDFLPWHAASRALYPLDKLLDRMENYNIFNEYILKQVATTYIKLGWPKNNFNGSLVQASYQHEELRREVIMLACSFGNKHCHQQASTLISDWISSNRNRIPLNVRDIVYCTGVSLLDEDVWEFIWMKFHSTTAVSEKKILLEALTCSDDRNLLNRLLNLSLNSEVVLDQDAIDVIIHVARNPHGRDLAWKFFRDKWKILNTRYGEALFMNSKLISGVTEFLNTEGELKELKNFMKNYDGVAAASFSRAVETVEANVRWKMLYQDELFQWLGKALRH
The experiment in a line: Competitive inhibition of TRH-DE (unknown origin).

pKi: −log10 of the molar value. Activity calls are given as the source filed them. The rule behind the calls is not given here. Non-standard residues stand in square brackets, D forms with d. Residues, ends and D or L forms follow the SMILES beside them. *: point of attachment. AMC = Cc1cc(=O)oc2cc(N*)ccc12; pGlu = O=C1CC[C@@H](C(=O)O)N1

T1 sequence (A0A287AP33 as listed by the source): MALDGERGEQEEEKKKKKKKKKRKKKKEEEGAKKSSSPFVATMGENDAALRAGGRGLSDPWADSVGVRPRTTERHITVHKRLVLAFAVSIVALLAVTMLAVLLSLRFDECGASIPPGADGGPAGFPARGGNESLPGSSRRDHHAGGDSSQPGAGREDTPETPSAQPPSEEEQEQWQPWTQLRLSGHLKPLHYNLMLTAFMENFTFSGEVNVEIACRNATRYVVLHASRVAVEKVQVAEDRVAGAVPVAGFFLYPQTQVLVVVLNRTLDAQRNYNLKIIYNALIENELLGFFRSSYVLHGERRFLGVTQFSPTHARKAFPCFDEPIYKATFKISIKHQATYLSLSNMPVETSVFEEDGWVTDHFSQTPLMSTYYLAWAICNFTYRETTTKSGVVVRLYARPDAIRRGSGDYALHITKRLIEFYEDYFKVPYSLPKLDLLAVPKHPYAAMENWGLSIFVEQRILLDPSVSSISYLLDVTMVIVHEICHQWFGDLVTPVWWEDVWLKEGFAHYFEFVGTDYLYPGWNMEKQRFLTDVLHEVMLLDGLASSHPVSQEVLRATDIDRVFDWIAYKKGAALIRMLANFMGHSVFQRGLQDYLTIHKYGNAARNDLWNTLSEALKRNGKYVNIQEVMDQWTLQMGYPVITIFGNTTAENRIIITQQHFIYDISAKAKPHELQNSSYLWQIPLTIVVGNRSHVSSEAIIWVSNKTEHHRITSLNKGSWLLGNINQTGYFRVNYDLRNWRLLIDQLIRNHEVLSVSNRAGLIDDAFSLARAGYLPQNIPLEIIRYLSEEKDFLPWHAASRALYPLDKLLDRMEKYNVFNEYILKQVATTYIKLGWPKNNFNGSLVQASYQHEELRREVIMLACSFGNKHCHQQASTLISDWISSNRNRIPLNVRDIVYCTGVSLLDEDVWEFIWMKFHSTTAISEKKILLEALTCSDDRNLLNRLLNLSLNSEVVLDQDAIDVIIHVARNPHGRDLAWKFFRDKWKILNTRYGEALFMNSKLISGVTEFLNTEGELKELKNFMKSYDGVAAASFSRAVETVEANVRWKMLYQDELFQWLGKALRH
Thyrotropin releasing hormone degrading enzyme, sequence (A0A287AP33 whole entry): as the sequence (A0A287AP33 as listed by the source) above

In general, inhibition refers to how much of the control response was suppressed. In general, pKi refers to the Ki on a negative log10 scale, so that one unit is a factor of ten. Low values mean a high Ki, high ones a low Ki. `Cc1cc(=O)oc2cc(NC(=O)[C@@H]3CCCN3C(=O)[C@H](CC(N)=O)NC(=O)[C@@H]3CCC(=O)N3)ccc12` ([pGlu]-Asn-Pro-{AMC}): the inhibition entry in experiment [1], in experiment [3], in [5], in experiment [6] and in experiment [8] was “Active” each time. Further, the pKi in [2] is 6.01 to 6.39; in [9], 4.32. For the same compound, the inhibition in experiment [4] amounted to 50%. Further, the “fold change (FC)” value in experiment [7] is listed as 18.
In the case of `O=C(O)C(Cc1ccccc1)N[C@@H](Cc1cn(Cc2ccccc2)cn1)C(=O)Nc1ccc2ccccc2c1` (some centres not stated), in experiment [10], the Activity came out at 0. Besides, the pKi in experiment [11] was 5.10; in [9] it was 7.65.
